Measurements taken from PMC2248166, “Quantitative peptide binding motifs for 19 human and mouse MHC class I molecules derived using positional scanning combinatorial peptide libraries” (Immunome Research, 2008).

Experiments:
Format in all cases: binding
[1] = molecular target: HLA B*5401 (Homo sapiens, UniProt P01889, A329T/C349S/D138N/D201E/E176V/E187T/E204Q/E69G/I76V/K202T/L119W/R155S/R180L/S121T/S35A/S48A/V127L/V306I/V36M/Y140L)
[2] = molecular target: HLA A*3201 (Homo sapiens, UniProt P04439, A270S/D101S/D185E/E176V/E277Q/F133L/G103R/G107R/G231S/H175R/I121M/I218V/I322F/K168Q/L105A/L300P/L318F/M331R/P208A/P217A/Q94H/R106L/R138Q/S129P/T104I/T323A/T345S/V100E/V321M/V358M); assay: biochemical
[3] = molecular target: HLA B*5301 (Homo sapiens, UniProt P01889, A329T/A93T/A95T/C349S/D201E/D98Y/E176V/E187L/E204Q/E69T/G107R/I218V/K202T/L105A/L119I/N104I/Q94N/R106L/R155S/R180L/S101N/S121R/S35A/S48A/T118I/V127L/V306I/V36M/Y140S/Y91F)
[4] = molecular target: HLA B*1503 (Homo sapiens, UniProt P01889, A329T/A93T/A95T/C349S/D201E/D98Y/E187L/E204Q/K202T/N87E/Q94N/R155S/R180L/S121R/S35A/V306I/V36M/Y140S/Y91S); assay: biochemical
[5] = molecular target: HLA B*5802 (Homo sapiens, UniProt P01889, A329T/C349S/D201E/D98Y/E176V/E187L/E204Q/E69T/G107R/I218V/I90N/K202T/L105A/N104I/N87E/Q89R/Q94S/R106L/R155S/R180L/R86G/S101N/S121W/S35A/S48A/V127L/V306I/V36M/Y140S/Y91M)
[6] = molecular target: HLA B*0801 (Homo sapiens, UniProt P01889, A93T/A95T/D138N/E176V/E187T/K202T/Q94N/R180D/S35A/V36M/Y33D/Y91F); assay: biochemical
[7] = molecular target: H-2 D^b (Mus musculus, UniProt P01899)
[8] = molecular target: H-2 K^d (Mus musculus, UniProt P01902)
[9] = molecular target: HLA B*5801 (Homo sapiens, UniProt P01889, A329T/C349S/D201E/D98Y/E176V/E187L/E204Q/E69T/G107R/I218V/I90N/K202T/L105A/L119I/N104I/N87E/Q89R/Q94S/R106L/R155S/R180L/R86G/S101N/S121R/S35A/S48A/T118I/V127L/V306I/V36M/Y140S/Y91M)
[10] = molecular target: HLA B*1501 (Homo sapiens, UniProt P01889, A329T/A93T/A95T/C349S/D201E/D98Y/E187L/E204Q/E69M/E70A/K202T/N87E/Q94N/R155S/R180W/S121R/S35A/S48A/V306I/V36M/Y140S/Y91S); assay: biochemical
[11] = molecular target: HLA A*3001 (Homo sapiens, UniProt P04439, D140H/D185E/E176W/F33S/G80R/H175R/K168Q/R138E/R41S); assay: biochemical
[12] = molecular target: HLA A*6802 (Homo sapiens, UniProt P04439, A269V/D140Y/D185E/E176V/E277Q/E87N/F33Y/G231S/I121R/I166T/I218V/L180W/L300P/L318F/N151K/P208A/P217A/Q86R/R138H/R169H/S129P/T345S/V36M)
[13] = molecular target: H-2 K^k (Mus musculus, UniProt P04223)
[14] = molecular target: H-2 D^d (Mus musculus, UniProt P01900)
[15] = molecular target: HLA B*3501 (Homo sapiens, UniProt P01889, A329T/A93T/A95T/C349S/D201E/D98Y/E176V/E187L/E204Q/E69T/I218V/K202T/L119I/Q94N/R155S/R180L/S121R/S35A/S48A/T118I/V127L/V306I/V36M/Y140S/Y91F)
[16] = molecular target: HLA B*5101 (Homo sapiens, UniProt P01889, A329T/A93T/A95T/C349S/D138N/D201E/D98Y/E187L/E204Q/E69T/G107R/I218V/K202T/L105A/L119W/N104I/Q94N/R106L/R155S/R180L/S101N/S121T/S35A/S48A/V306I/V36M/Y195H/Y91F)

H-2 K^k, sequence (P01887 21-119): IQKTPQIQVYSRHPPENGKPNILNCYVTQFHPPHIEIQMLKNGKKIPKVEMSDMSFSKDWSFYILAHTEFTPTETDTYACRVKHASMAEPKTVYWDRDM
H-2 K^k, sequence (P04223 22-369): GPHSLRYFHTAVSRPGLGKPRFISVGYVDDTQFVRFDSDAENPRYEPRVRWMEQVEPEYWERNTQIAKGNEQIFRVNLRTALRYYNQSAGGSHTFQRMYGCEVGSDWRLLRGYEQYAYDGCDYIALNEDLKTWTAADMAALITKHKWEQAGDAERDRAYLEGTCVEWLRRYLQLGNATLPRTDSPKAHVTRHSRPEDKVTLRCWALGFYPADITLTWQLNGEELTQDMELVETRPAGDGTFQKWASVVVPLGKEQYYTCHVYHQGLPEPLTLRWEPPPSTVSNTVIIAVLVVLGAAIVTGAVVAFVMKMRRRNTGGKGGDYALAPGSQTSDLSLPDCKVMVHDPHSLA
H-2 D^b, sequence (P01887 21-119): as the sequence (P01887 21-119) above
H-2 D^b, sequence (P01899 25-362): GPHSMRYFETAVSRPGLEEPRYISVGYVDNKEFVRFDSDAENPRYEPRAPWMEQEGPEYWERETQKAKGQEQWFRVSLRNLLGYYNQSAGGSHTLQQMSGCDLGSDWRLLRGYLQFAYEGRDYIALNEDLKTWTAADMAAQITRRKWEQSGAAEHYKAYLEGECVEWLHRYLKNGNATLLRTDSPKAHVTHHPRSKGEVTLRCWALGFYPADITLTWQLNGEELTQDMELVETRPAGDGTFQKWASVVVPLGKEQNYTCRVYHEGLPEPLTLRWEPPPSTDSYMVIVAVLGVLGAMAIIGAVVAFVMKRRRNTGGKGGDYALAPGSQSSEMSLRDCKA
H-2 K^d, sequence (P01887 21-119): as the sequence (P01887 21-119) above
H-2 K^d, sequence (P01902 22-368): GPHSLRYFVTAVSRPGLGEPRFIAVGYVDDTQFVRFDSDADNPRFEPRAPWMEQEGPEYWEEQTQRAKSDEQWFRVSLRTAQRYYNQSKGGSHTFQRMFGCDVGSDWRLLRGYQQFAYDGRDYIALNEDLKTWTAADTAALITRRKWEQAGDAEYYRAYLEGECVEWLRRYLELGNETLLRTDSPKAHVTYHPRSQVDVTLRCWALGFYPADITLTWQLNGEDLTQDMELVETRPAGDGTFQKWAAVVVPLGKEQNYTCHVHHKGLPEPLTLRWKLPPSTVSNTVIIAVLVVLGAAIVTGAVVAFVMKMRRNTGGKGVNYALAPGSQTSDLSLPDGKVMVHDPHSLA
H-2 D^d, sequence (P01900 whole entry, looked up): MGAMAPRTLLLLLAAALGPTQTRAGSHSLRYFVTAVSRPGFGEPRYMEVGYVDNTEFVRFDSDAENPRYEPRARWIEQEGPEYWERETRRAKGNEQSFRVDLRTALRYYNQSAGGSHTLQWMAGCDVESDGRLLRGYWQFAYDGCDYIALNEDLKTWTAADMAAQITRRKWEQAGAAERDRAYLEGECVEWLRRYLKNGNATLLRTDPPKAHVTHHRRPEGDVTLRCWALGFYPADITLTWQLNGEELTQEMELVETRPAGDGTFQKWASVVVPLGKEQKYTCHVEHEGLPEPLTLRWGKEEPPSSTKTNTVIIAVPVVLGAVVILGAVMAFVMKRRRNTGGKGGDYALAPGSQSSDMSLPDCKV

## XXXFXXXXX [3064.0065]
[1]
  Normalized average relative binding affinity(ARB): 0.31
[2]
  Normalized average relative binding affinity(ARB): 1.0
[3]
  Normalized average relative binding affinity(ARB): 0.21
[4]
  Normalized average relative binding affinity(ARB): 0.41
[5]
  Normalized average relative binding affinity(ARB): 0.45
[6]
  Normalized average relative binding affinity(ARB): 0.55
[7]
  Normalized average relative binding affinity(ARB): 0.38
[8]
  Normalized average relative binding affinity(ARB): 0.098
[9]
  Normalized average relative binding affinity(ARB): 0.31
[10]
  Normalized average relative binding affinity(ARB): 0.42
[11]
  Normalized average relative binding affinity(ARB): 1.0
[12]
  Normalized average relative binding affinity(ARB): 0.74
[13]
  Normalized average relative binding affinity(ARB): 0.38
[14]
  Normalized average relative binding affinity(ARB): 0.96
[15]
  Normalized average relative binding affinity(ARB): 0.10
[16]
  Normalized average relative binding affinity(ARB): 0.64

## XXXXXXXCX [3064.0142]
[1]
  Normalized average relative binding affinity(ARB): 0.74
[2]
  Normalized average relative binding affinity(ARB): 0.11
[3]
  Normalized average relative binding affinity(ARB): 0.078
[4]
  Normalized average relative binding affinity(ARB): 0.11
[5]
  Normalized average relative binding affinity(ARB): 0.21
[6]
  Normalized average relative binding affinity(ARB): 0.22
[7]
  Normalized average relative binding affinity(ARB): 0.12
[8]
  Normalized average relative binding affinity(ARB): 0.28
[9]
  Normalized average relative binding affinity(ARB): 0.18
[10]
  Normalized average relative binding affinity(ARB): 0.18
[11]
  Normalized average relative binding affinity(ARB): 0.11
[12]
  Normalized average relative binding affinity(ARB): 0.19
[13]
  Normalized average relative binding affinity(ARB): 0.37
[14]
  Normalized average relative binding affinity(ARB): 0.78
[15]
  Normalized average relative binding affinity(ARB): 0.087
[16]
  Normalized average relative binding affinity(ARB): 0.38

## XXXXXPXXX [3064.0113]
[1]
  Normalized average relative binding affinity(ARB): 0.15
[2]
  Normalized average relative binding affinity(ARB): 0.27
[3]
  Normalized average relative binding affinity(ARB): 0.15
[4]
  Normalized average relative binding affinity(ARB): 0.47
[5]
  Normalized average relative binding affinity(ARB): 0.39
[6]
  Normalized average relative binding affinity(ARB): 0.039
[7]
  Normalized average relative binding affinity(ARB): 0.23
[8]
  Normalized average relative binding affinity(ARB): 0.15
[9]
  Normalized average relative binding affinity(ARB): 0.20
[10]
  Normalized average relative binding affinity(ARB): 0.11
[11]
  Normalized average relative binding affinity(ARB): 0.19
[12]
  Normalized average relative binding affinity(ARB): 0.57
[13]
  Normalized average relative binding affinity(ARB): 0.38
[14]
  Normalized average relative binding affinity(ARB): 0.094
[15]
  Normalized average relative binding affinity(ARB): 0.14
[16]
  Normalized average relative binding affinity(ARB): 0.067

## XXXXXXXEX [3064.0144]
[1]
  Normalized average relative binding affinity(ARB): 0.13
[2]
  Normalized average relative binding affinity(ARB): 0.27
[3]
  Normalized average relative binding affinity(ARB): 0.10
[4]
  Normalized average relative binding affinity(ARB): 0.11
[5]
  Normalized average relative binding affinity(ARB): 0.30
[6]
  Normalized average relative binding affinity(ARB): 0.24
[7]
  Normalized average relative binding affinity(ARB): 0.33
[8]
  Normalized average relative binding affinity(ARB): 0.55
[9]
  Normalized average relative binding affinity(ARB): 0.18
[10]
  Normalized average relative binding affinity(ARB): 0.23
[11]
  Normalized average relative binding affinity(ARB): 0.12
[12]
  Normalized average relative binding affinity(ARB): 0.14
[13]
  Normalized average relative binding affinity(ARB): 0.46
[14]
  Normalized average relative binding affinity(ARB): 0.65
[15]
  Normalized average relative binding affinity(ARB): 0.098
[16]
  Normalized average relative binding affinity(ARB): 0.34

## XXXXWXXXX [3064.0099]
[1]
  Normalized average relative binding affinity(ARB): 0.14
[2]
  Normalized average relative binding affinity(ARB): 0.65
[3]
  Normalized average relative binding affinity(ARB): 0.074
[4]
  Normalized average relative binding affinity(ARB): 0.44
[5]
  Normalized average relative binding affinity(ARB): 1.0
[6]
  Normalized average relative binding affinity(ARB): 0.023
[7]
  Normalized average relative binding affinity(ARB): 0.013
[8]
  Normalized average relative binding affinity(ARB): 0.21
[9]
  Normalized average relative binding affinity(ARB): 0.30
[10]
  Normalized average relative binding affinity(ARB): 0.49
[11]
  Normalized average relative binding affinity(ARB): 0.16
[12]
  Normalized average relative binding affinity(ARB): 0.26
[13]
  Normalized average relative binding affinity(ARB): 1.0
[14]
  Normalized average relative binding affinity(ARB): 0.098
[15]
  Normalized average relative binding affinity(ARB): 0.29
[16]
  Normalized average relative binding affinity(ARB): 0.19

## XXXXXXXAX [3064.0141]
[1]
  Normalized average relative binding affinity(ARB): 0.50
[2]
  Normalized average relative binding affinity(ARB): 0.99
[3]
  Normalized average relative binding affinity(ARB): 0.80
[4]
  Normalized average relative binding affinity(ARB): 0.27
[5]
  Normalized average relative binding affinity(ARB): 0.31
[6]
  Normalized average relative binding affinity(ARB): 0.95
[7]
  Normalized average relative binding affinity(ARB): 0.50
[8]
  Normalized average relative binding affinity(ARB): 1.0
[9]
  Normalized average relative binding affinity(ARB): 0.14
[10]
  Normalized average relative binding affinity(ARB): 0.36
[11]
  Normalized average relative binding affinity(ARB): 0.53
[12]
  Normalized average relative binding affinity(ARB): 1.0
[13]
  Normalized average relative binding affinity(ARB): 0.82
[14]
  Normalized average relative binding affinity(ARB): 0.93
[15]
  Normalized average relative binding affinity(ARB): 1.0
[16]
  Normalized average relative binding affinity(ARB): 0.52

## XXXRXXXXX [3064.0075]
[1]
  Normalized average relative binding affinity(ARB): 0.069
[2]
  Normalized average relative binding affinity(ARB): 0.22
[3]
  Normalized average relative binding affinity(ARB): 0.11
[4]
  Normalized average relative binding affinity(ARB): 0.50
[5]
  Normalized average relative binding affinity(ARB): 0.96
[6]
  Normalized average relative binding affinity(ARB): 0.86
[7]
  Normalized average relative binding affinity(ARB): 0.63
[8]
  Normalized average relative binding affinity(ARB): 0.20
[9]
  Normalized average relative binding affinity(ARB): 0.67
[10]
  Normalized average relative binding affinity(ARB): 0.28
[11]
  Normalized average relative binding affinity(ARB): 0.52
[12]
  Normalized average relative binding affinity(ARB): 0.057
[13]
  Normalized average relative binding affinity(ARB): 0.34
[14]
  Normalized average relative binding affinity(ARB): 0.62
[15]
  Normalized average relative binding affinity(ARB): 0.059
[16]
  Normalized average relative binding affinity(ARB): 0.40

## XXXXXCXXX [3064.0102]
[1]
  Normalized average relative binding affinity(ARB): 0.10
[2]
  Normalized average relative binding affinity(ARB): 0.19
[3]
  Normalized average relative binding affinity(ARB): 0.13
[4]
  Normalized average relative binding affinity(ARB): 0.096
[5]
  Normalized average relative binding affinity(ARB): 0.38
[6]
  Normalized average relative binding affinity(ARB): 0.039
[7]
  Normalized average relative binding affinity(ARB): 0.66
[8]
  Normalized average relative binding affinity(ARB): 0.26
[9]
  Normalized average relative binding affinity(ARB): 0.17
[10]
  Normalized average relative binding affinity(ARB): 0.40
[11]
  Normalized average relative binding affinity(ARB): 0.13
[12]
  Normalized average relative binding affinity(ARB): 0.44
[13]
  Normalized average relative binding affinity(ARB): 0.40
[14]
  Normalized average relative binding affinity(ARB): 0.43
[15]
  Normalized average relative binding affinity(ARB): 0.15
[16]
  Normalized average relative binding affinity(ARB): 0.26
